# Source: ChEMBL document CHEMBL3991601, “The target landscape of clinical kinase drugs” (Science, 2017)
# Activity calls are given as the source filed them. Cut-off read from the data, not from the text of the source, for most assays here: actives have a measured Kd and inactives only a lower limit.
# How the values were obtained:
# [1] = biological target: T1, Serine/threonine-protein kinase STK11 (Homo sapiens, UniProt Q15831)
# T1 sequence (Q15831 whole entry): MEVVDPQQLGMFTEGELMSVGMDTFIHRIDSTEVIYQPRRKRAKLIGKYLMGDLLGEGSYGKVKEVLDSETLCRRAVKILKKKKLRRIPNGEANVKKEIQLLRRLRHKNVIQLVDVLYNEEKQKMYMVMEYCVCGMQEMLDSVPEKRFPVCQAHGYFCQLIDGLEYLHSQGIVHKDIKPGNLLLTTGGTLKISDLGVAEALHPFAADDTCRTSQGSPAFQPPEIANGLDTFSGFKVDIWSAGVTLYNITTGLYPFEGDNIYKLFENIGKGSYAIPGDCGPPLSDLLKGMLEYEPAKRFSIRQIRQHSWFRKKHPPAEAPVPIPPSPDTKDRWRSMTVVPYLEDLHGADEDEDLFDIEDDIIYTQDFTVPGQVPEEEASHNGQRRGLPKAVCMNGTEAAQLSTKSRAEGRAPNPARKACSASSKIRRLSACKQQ
# [2] = biological target: Rho-associated protein kinase 2 (Homo sapiens, UniProt O75116)
# [3] = biological target: Insulin receptor (Homo sapiens, UniProt P06213)
# [4] = biological target: T2, Cytochrome c1, heme protein, mitochondrial (Homo sapiens, UniProt P08574)
# T2 sequence (P08574 whole entry): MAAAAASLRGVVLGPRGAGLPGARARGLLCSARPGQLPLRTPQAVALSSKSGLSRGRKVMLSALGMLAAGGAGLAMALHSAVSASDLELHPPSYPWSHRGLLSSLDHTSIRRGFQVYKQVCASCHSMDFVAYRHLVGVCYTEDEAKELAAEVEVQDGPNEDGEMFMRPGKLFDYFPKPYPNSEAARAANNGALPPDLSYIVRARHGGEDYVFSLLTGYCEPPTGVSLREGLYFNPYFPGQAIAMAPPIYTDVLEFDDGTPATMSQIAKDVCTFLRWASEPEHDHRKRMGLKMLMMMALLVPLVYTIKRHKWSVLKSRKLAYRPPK
# [5] = biological target: T3, Serine/threonine-protein kinase ULK3 (Homo sapiens, UniProt Q6PHR2)
# T3 sequence (Q6PHR2 whole entry): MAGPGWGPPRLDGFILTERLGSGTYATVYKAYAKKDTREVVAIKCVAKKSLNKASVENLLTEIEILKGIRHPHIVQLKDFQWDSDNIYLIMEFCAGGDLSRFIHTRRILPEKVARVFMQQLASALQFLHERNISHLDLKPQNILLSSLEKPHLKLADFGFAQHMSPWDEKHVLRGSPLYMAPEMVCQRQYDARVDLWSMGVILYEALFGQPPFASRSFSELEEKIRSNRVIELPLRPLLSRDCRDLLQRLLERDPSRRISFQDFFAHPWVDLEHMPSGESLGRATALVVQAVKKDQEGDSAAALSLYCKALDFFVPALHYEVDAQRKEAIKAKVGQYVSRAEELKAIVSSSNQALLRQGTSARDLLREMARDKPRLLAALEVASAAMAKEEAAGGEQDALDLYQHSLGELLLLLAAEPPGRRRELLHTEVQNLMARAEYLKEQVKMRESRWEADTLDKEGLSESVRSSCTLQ
# [6] = biological target: T4, Mitogen-activated protein kinase kinase kinase kinase 2 (Homo sapiens, UniProt Q12851)
# T4 sequence (Q12851 whole entry): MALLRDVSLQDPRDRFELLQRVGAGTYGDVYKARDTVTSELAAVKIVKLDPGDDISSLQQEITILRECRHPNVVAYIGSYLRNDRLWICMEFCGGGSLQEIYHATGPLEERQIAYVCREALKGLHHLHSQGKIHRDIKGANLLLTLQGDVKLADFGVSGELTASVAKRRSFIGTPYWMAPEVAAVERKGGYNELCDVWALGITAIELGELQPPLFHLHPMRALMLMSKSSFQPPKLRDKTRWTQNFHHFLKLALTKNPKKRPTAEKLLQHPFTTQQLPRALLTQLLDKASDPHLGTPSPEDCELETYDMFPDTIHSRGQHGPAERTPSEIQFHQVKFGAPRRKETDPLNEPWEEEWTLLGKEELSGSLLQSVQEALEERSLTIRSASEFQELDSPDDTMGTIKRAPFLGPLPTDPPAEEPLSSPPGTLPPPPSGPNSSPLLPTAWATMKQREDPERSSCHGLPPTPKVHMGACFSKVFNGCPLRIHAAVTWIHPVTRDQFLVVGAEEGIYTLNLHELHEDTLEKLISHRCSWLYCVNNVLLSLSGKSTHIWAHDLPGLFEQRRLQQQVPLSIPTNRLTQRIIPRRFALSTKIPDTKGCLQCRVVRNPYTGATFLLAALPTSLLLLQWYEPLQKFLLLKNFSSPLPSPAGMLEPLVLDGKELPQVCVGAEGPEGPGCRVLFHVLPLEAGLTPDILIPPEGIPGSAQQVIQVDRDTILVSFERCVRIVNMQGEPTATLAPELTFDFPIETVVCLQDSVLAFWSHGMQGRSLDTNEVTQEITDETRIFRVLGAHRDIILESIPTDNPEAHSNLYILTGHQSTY
# [7] = biological target: T5, Bifunctional phosphoribosylaminoimidazole carboxylase/phosphoribosylaminoimidazole succinocarboxamide synthetase (Homo sapiens, UniProt P22234)
# T5 sequence (P22234 whole entry): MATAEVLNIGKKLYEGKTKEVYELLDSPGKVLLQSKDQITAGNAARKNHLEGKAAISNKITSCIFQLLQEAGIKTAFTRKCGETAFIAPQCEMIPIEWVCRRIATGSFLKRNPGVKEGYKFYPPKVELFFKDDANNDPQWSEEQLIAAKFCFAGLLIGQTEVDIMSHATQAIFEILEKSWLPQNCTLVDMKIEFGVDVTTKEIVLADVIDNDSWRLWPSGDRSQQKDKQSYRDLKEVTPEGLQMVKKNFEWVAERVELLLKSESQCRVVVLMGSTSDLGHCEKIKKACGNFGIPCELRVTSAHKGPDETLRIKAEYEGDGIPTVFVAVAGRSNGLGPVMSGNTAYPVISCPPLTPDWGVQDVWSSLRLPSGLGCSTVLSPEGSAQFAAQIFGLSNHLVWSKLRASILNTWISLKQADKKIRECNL
# [8] = biological target: Glycogen synthase kinase-3 alpha (Homo sapiens, UniProt P49840)
# [9] = biological target: T6, EKC/KEOPS complex subunit TP53RK (Homo sapiens, UniProt Q96S44)
# T6 sequence (Q96S44 whole entry): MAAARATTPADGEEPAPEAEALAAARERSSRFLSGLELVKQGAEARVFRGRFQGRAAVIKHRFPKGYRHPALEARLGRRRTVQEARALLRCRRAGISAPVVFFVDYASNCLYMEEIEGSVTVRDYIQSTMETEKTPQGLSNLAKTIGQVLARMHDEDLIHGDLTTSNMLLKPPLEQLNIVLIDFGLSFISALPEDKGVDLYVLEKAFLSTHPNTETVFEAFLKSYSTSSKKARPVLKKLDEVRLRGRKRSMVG
# Note: in the data inactive means no Kd found up to 30 µM.
# Sequence of Glycogen synthase kinase-3 alpha (P49840 whole entry): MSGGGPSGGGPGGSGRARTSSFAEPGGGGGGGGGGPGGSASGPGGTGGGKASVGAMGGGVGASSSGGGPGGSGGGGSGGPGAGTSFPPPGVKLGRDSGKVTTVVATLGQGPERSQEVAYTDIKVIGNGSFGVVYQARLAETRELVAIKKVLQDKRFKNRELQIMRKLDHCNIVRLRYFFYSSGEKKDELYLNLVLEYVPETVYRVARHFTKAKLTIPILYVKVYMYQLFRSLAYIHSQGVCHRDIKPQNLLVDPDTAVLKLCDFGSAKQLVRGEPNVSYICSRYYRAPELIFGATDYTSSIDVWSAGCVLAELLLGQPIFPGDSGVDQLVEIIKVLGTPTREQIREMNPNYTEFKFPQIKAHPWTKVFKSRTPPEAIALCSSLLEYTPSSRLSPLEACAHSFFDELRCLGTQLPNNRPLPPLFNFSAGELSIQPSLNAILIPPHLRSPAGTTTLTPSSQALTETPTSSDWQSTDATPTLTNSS
# Sequence of Rho-associated protein kinase 2 (O75116 whole entry): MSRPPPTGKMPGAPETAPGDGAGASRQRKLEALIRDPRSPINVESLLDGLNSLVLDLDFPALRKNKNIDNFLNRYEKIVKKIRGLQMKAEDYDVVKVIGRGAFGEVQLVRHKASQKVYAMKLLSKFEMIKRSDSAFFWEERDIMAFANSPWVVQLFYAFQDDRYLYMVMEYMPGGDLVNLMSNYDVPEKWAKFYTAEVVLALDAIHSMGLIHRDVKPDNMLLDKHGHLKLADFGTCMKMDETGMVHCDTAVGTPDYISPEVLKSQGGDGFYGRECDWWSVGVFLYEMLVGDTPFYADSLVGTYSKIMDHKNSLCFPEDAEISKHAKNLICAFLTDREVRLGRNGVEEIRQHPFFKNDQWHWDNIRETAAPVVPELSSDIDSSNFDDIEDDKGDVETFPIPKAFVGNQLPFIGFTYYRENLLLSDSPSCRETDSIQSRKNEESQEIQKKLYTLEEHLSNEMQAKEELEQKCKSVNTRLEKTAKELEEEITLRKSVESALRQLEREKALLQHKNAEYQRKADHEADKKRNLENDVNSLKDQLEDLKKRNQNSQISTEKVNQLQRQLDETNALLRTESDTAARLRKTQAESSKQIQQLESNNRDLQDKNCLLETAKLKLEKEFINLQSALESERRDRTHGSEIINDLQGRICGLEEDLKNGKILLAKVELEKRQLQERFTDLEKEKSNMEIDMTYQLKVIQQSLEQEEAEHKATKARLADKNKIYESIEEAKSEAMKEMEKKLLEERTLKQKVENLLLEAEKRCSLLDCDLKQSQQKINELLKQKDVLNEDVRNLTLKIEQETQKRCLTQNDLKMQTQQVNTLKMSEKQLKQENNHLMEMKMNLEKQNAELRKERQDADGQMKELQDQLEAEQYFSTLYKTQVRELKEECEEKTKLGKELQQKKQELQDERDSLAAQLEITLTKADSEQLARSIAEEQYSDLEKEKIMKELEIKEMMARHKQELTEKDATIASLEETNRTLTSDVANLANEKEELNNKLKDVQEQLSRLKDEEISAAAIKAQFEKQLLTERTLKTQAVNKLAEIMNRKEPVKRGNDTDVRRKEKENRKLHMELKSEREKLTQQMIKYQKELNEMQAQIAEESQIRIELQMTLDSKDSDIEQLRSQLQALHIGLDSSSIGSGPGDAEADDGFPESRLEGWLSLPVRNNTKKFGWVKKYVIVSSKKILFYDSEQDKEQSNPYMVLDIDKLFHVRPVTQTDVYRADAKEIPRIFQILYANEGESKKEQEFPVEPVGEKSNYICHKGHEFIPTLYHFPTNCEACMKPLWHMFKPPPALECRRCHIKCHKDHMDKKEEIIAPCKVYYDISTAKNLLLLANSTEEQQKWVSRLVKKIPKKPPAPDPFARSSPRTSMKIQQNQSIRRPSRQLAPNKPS
# Sequence of Insulin receptor (P06213 28-758 limits assumed): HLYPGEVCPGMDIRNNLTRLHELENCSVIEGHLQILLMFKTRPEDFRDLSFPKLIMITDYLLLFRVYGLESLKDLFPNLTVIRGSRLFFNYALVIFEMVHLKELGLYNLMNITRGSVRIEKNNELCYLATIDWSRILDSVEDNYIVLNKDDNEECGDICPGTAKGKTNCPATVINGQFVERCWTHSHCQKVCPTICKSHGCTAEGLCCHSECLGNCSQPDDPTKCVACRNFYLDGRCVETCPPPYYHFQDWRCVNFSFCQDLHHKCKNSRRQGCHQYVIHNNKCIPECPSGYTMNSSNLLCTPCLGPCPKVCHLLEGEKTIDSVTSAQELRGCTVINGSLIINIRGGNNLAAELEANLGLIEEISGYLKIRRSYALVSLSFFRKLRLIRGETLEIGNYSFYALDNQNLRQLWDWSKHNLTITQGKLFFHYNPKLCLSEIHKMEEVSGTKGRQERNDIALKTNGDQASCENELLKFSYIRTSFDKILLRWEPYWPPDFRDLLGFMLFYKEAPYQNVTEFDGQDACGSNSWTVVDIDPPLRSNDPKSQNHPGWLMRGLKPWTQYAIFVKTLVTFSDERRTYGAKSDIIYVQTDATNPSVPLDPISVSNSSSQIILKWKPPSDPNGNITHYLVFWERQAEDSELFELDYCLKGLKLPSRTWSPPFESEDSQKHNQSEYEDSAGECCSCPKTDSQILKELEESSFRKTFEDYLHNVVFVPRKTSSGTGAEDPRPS
# Sequence of Insulin receptor (P06213 763-1382 limits assumed): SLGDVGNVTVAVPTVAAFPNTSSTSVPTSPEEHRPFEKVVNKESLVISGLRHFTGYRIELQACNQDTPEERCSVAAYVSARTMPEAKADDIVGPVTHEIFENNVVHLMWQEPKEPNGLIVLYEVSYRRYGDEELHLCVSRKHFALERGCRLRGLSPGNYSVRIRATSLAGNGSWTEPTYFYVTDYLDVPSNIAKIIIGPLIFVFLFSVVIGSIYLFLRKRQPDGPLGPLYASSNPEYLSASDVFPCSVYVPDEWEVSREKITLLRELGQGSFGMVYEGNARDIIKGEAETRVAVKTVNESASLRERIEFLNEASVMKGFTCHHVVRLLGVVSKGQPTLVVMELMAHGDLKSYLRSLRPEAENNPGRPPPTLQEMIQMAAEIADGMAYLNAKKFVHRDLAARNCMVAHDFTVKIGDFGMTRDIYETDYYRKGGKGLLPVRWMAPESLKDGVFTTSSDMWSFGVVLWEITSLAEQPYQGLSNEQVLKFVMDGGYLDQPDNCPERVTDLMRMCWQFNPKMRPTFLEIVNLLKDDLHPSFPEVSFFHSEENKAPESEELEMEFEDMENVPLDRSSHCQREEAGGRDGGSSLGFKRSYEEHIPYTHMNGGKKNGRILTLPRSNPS
Compound,Kd [1],Kd [2],Kd [3],Kd [4],Kd [5],Kd [6],Kd [7],Kd [8],Kd [9]
Cn1c(=O)c(F)c(Nc2ccc(I)cc2F)c2c(=O)n(C[C@@H](O)CO)cnc21 [TAK-733],> 30 µM (inactive),> 30 µM (inactive),> 30 µM (inactive),> 30 µM (inactive),> 30 µM (inactive),> 30 µM (inactive),> 30 µM (inactive),> 30 µM (inactive),> 30 µM (inactive)
COc1cc2ncnc3c2cc1OCCCCCN(C)Cc1ccc(Br)cc1N3 [JNJ-26483327],> 30 µM (inactive),> 30 µM (inactive),> 30 µM (inactive),> 30 µM (inactive),> 30 µM (inactive),> 30 µM (inactive),> 30 µM (inactive),> 30 µM (inactive),> 30 µM (inactive)
COc1cc2ncnc(Nc3ccc(F)c(Cl)c3)c2cc1NC(=O)/C=C/CN1CCCCC1 [DACOMITINIB ANHYDROUS],> 30 µM (inactive),> 30 µM (inactive),> 30 µM (inactive),> 30 µM (inactive),> 30 µM (inactive),> 30 µM (inactive),> 30 µM (inactive),> 30 µM (inactive),> 30 µM (inactive)
C#Cc1cccc(Nc2ncnc3cc4c(cc23)OCCOCCOCCO4)c1 [ICOTINIB],> 30 µM (inactive),> 30 µM (inactive),> 30 µM (inactive),> 30 µM (inactive),> 30 µM (inactive),> 30 µM (inactive),> 30 µM (inactive),> 30 µM (inactive),> 30 µM (inactive)
Cc1cc(C(=O)Nc2cc(Oc3ccc4nc(NC(=O)C5CC5)cn4n3)ccc2C)n(C)n1 [TAK-593],> 30 µM (inactive),> 30 µM (inactive),> 30 µM (inactive),> 30 µM (inactive),> 30 µM (inactive),> 30 µM (inactive),> 30 µM (inactive),> 30 µM (inactive),> 30 µM (inactive)
COc1cc2ncnc(Nc3ccc(O)cc3)c2cc1OC [WHI-P131],> 30 µM (inactive),> 30 µM (inactive),> 30 µM (inactive),> 30 µM (inactive),> 30 µM (inactive),> 30 µM (inactive),> 30 µM (inactive),> 30 µM (inactive),> 30 µM (inactive)
O=C(O)c1ccc2c(c1)nc(Nc1cccc(Cl)c1)c1ccncc12 [SILMITASERTIB],> 30 µM (inactive),> 30 µM (inactive),> 30 µM (inactive),> 30 µM (inactive),> 30 µM (inactive),> 30 µM (inactive),> 30 µM (inactive),17.3 µM (active),
O[C@H]1CC[C@H](Nc2ncc3nc(Nc4c(F)cc(F)cc4F)n([C@H]4CCOC4)c3n2)CC1 [TANZISERTIB],> 30 µM (inactive),> 30 µM (inactive),> 30 µM (inactive),> 30 µM (inactive),> 30 µM (inactive),> 30 µM (inactive),> 30 µM (inactive),> 30 µM (inactive),> 30 µM (inactive)
S=C(NCc1ccc2c(c1)OCO2)N1CCN(c2ncnc3c2oc2ccccc23)CC1 [AMUVATINIB],> 30 µM (inactive),> 30 µM (inactive),> 30 µM (inactive),> 30 µM (inactive),> 30 µM (inactive),> 30 µM (inactive),> 30 µM (inactive),> 30 µM (inactive),> 30 µM (inactive)
CC1(COc2ccc3c(c2)ncn3-c2ccc3cccc(N4CCC(N)CC4)c3n2)COC1 [CRENOLANIB],> 30 µM (inactive),> 30 µM (inactive),> 30 µM (inactive),> 30 µM (inactive),> 30 µM (inactive),> 30 µM (inactive),> 30 µM (inactive),> 30 µM (inactive),> 30 µM (inactive)
CNC(=O)c1cc(COc2nnc(Nc3ccc(Cl)cc3)c3ccoc23)ccn1 [TELATINIB],> 30 µM (inactive),> 30 µM (inactive),> 30 µM (inactive),> 30 µM (inactive),> 30 µM (inactive),> 30 µM (inactive),> 30 µM (inactive),> 30 µM (inactive),> 30 µM (inactive)
COc1cc(F)c(F)c(Nc2ccc(I)cc2F)c1NS(=O)(=O)C1(C[C@H](O)CO)CC1 [REFAMETINIB],> 30 µM (inactive),> 30 µM (inactive),> 30 µM (inactive),> 30 µM (inactive),> 30 µM (inactive),> 30 µM (inactive),> 30 µM (inactive),> 30 µM (inactive),> 30 µM (inactive)
COc1cccc2cc(-c3nc([C@H]4CC[C@H](C(=O)O)CC4)n4ncnc(N)c34)[nH]c12 [OSI-027],> 30 µM (inactive),> 30 µM (inactive),> 30 µM (inactive),> 30 µM (inactive),> 30 µM (inactive),> 30 µM (inactive),> 30 µM (inactive),> 30 µM (inactive),> 30 µM (inactive)
CNC(=O)c1ccc(Nc2ncc(C(F)(F)F)c(NCc3nccnc3N(C)S(C)(=O)=O)n2)cc1 [DEFACTINIB],> 30 µM (inactive),> 30 µM (inactive),> 30 µM (inactive),> 30 µM (inactive),> 30 µM (inactive),> 30 µM (inactive),> 30 µM (inactive),1.46 µM (active),> 30 µM (inactive)
N#CCNC(=O)c1ccc(-c2ccnc(Nc3ccc(N4CCOCC4)cc3)n2)cc1 [MOMELOTINIB],> 30 µM (inactive),0.219 µM (active),> 30 µM (inactive),> 30 µM (inactive),,> 30 µM (inactive),> 30 µM (inactive),> 30 µM (inactive),> 30 µM (inactive)
